The source of these data is patent publication US8541189B2, “Method for measuring the plasmine activity of microparticles present in a sample of blood or a blood component” (Institut National de la Sante et de la Recherche Medicale …, priority 2007, dated 2013).

In the assay the target is plasminogen (Homo sapiens, UniProt P00747). Put plainly: Plasmin-generation test, EMPs in suspension. The following applies: 5 · 10^4 EMP/50 μL + EACA; 1 μM plasminogen; 0.75 mM CBS0065. In kind it is biochemical. As for the experimental part:
In the round-bottomed wells of 96-well plates made of PVC, different EMP concentrations in suspension in PBS, to which 0.8% bovine serum albumin (PBSA) had been added, were incubated with 50 μl of a mixture of 1 μM plasminogen and (methyl-malonyl)-hydroxypropylarginine-p-nitroanilide (CBS0065, Stag°, Asniéres, France), chromogenic substrate selective for plasmin, at 0.75 mM.
An identical volume of supernatant from the last washing of the EMPs was used as a control.
The microplate was placed in the microplate readers and the kinetics of the appearance of the plasmin were monitored for 9 hours using a spectrophotometer suitable for reading multiwell plates (MX5000. Dynex) at 37° C. by measurement of the modifications of the absorbance at 405 nm produced by the release of the p-nitroaniline as a function of time.

Chain of plasminogen (P00747 20-810 limits assumed, species assumed): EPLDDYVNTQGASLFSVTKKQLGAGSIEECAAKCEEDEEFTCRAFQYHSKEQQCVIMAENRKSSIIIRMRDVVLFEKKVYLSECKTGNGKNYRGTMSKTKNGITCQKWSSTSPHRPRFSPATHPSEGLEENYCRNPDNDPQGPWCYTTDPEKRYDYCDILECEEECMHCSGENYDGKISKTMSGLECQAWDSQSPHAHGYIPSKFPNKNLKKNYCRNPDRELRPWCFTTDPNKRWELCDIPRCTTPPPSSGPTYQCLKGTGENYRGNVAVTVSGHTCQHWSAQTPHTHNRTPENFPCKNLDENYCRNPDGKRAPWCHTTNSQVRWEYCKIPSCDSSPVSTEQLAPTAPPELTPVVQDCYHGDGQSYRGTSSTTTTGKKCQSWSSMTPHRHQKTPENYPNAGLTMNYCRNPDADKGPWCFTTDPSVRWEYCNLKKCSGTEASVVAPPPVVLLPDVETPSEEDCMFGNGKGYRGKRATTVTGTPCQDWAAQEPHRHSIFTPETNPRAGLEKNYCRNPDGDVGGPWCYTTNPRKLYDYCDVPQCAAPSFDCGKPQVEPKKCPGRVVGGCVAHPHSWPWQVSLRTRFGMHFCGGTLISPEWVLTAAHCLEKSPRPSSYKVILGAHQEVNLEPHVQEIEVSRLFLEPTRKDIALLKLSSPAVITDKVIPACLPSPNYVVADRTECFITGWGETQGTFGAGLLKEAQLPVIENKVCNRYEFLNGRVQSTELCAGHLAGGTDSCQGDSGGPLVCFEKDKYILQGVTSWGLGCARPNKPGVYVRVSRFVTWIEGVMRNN

`NCCCCCC(=O)O` [EACA, ε-aminocaproic acid]: the A405 nm/min stood at 0.6 A405 nm/min.
